Measurements as given in US20230382851A1, “GAMMA-HYDRO[…] AND PROCESSES FOR MAKING AND USING THEM” (Zevra Therapeutics, Inc., priority 2022, published 2023).

Assay: Pharmacokinetics of GHB in plasma after oral gavage of GHB delivering compounds; relative oral bioavailability vs sodium oxybate
Conditions: vehicle water
[1] = molar equivalent of 100 mg/kg NaGHB
[2] = dose equivalent to 80 mg/kg NaGHB

Row | Structure (SMILES) | % AUC0-4 hr vs study comparator (sodium oxybate) [1] | % Cmax vs study comparator (sodium oxybate) [1] | % AUC0-4 hr vs study comparator (sodium oxybate) [2] | % Cmax vs study comparator (sodium oxybate) [2]
1 | O=C1CCCO1 [GBL] | 27% | 70% |  | 
2 | CCOC(=O)OCCCC(=O)O [O-(ethoxycarbonyl)-GHB, O-(Ethoxycarbonyl)-GHB] |  |  | 54% | 51%
